Measured values reported in PMC6934184, “Selective DNA-PKcs inhibition extends the therapeutic index of localized radiotherapy and chemotherapy” (The Journal of Clinical Investigation, 2019).

Target: T1, CSNK1D (CK1 delta) (Homo sapiens, UniProt P48730)
T1 construct: purchased Thermo Fisher Scientific (Life Technologies) SelectScreen
Experiment: SelectScreen Z'LYTE
Type: biochemical
How it was run: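 Percent values come from Thermo SelectScreen profiling of NU5455, combining activity and binding assays. CSF1R was run in Z'LYTE format at Km app ATP, and CAMK1 in Adapta format with ATP listed at 10.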

T1 sequence (P48730 whole entry): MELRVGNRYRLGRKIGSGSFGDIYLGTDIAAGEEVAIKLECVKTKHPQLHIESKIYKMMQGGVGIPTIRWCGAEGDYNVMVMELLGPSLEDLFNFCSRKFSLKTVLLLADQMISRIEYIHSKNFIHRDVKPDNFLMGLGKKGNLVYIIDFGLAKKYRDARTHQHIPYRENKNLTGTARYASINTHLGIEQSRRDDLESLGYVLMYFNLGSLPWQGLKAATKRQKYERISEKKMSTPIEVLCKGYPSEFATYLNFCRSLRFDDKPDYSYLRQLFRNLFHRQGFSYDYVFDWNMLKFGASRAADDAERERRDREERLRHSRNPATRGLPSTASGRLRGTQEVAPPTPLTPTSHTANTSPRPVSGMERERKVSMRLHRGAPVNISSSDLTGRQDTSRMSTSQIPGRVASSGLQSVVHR

For `CN(C(=O)CN1CCOCC1)c1ccc2sc3c(-c4cccc5c(=O)cc(N6CC7CCC(C6)O7)oc45)cccc3c2c1` [NU5455], the inhibition at 1 µM was 2.6%.
